Reference: article PMC9786170, “The Pharmacological Potential of Novel Melittin Variants from the Honeybee and Solitary Bees against Inflammation and Cancer” (Toxins, 2022)

Columns and labels:
RAW264.7 cells = test: Cell viability assay (WST-8/Orangu formazan) in RAW264.7 cells; assay type: cell-based, murine; settings: RAW264.7, 25 µg/mL, 24 h, WST-8 formazan absorbance, vehicle = 100%, n = 3
Description: Figure 1 Toxicity characterization of cells treated with melittin peptides. (A,B) For the viability assay, RAW264.7 (A) or HEK293T (B) cells were treated with bee venom compounds in the indicated concentrations for 24 h. Cells were incubated with WST-8 and the formed formazan was detected by absorbance measurements. (C) For the proliferation assay, HMEC-1 cells were grown in low density and treated after 24 h with the indicated peptide (25 µg/mL) for 72 h. Cells were stained with crystal violet solution. The amount of DNA-bound crystal violet was detected by absorbance measurements. (D) The number of sub-diploidic cells was determined by staining with propidium iodide (PI) and quantified to assess apoptosis of HUVECs. Data are expressed as mean ± SEM. (A) n = 3, (B) n = 4, (C) n = 2–3, (D) n = 2. * p ≤ 0.05 versus control.
For assessing the cytotoxicity of all peptides, various cell types and assays were utilized. To determine the cell viability of HEK293T and RAW246.7 cells, the Orangu^TM assay (Cell Guidance Systems Ltd., Cambridge, UK) was used, as previously described. 2 × 10^5 HEK293T or 2 × 10^5 RAW246.7 were seeded in 96-well plates. Different concentrations (0, 0.25, 2.5, 25 µg/mL) of melittin peptides or vehicle (DMSO) were added. After 24 h of incubation at 37 °C and 5% CO2, 10 µL of Orangu^TM cell counting solution was added and incubated for 60 min. After incubation, absorbance was measured at a wavelength of 450 nm with a reference at 650 nm at an EnSpire 2300 Multimode Plate Reader (Perkin Elmer, Lübeck, Germany). To calculate cell viability, the absorbance of vehicle-treated cells was set to 100%, and the melittin derivates-treated samples were correlated to them.

HEK293T cells [1] = test: cAMP induction assay (pGloSensor-22F); assay type: cell-based, human; settings: 2.5 and 25 µg/mL, pGloSensor luminescence, n = 4
Description: (§1) Figure 3 Melittin derivates alter the cellular concentration of cyclic adenosine monophosphate (cAMP). (A) For the cAMP induction assay, HEK293T cells transfected with pGloSensor-22F cAMP plasmid were treated with melittin derivates (0.25, 2.5, 25 µg/mL) in presence of the pGloSensor cAMP reagent, and luminescence was detected. (B) For the cAMP inhibition assay, HEK293T cells transfected with pGloSensor-22F cAMP plasmid were treated with melittin derivates (0.25, 2.5, 25 µg/mL) in presence of the pGloSensor cAMP reagent, stimulated with 5 µM forskolin, and luminescence was detected. Data are expressed as mean ± SEM. n = 4, * p ≤ 0.05 versus control.
(§2) HEK293T cells were transfected with pGloSensor-22F cAMP plasmid (E2301, Promega, Walldorf, Germany) using turbofect reagent (Thermofisher Scientific, Frankfurt am Main, Germany). […] For the induction assay (step one), the luminescence was detected (background, 3 measurements every 5 min) and then the melittin peptides (0.25, 2.5, 25 µg/mL) or 5 µM forskolin were added. The luminescence was detected (3 measurements every 5 min) using the plate reader (Spark, Tecan, Männedorf, Switzerland). For the inhibition assay (step tow), the melittin peptide-treated cells were then incubated with 5 µM forskolin and the luminescence was detected (3 measurements every 5 min). […]

HEK293T cells [2] = test: cAMP inhibition assay (forskolin-stimulated, pGloSensor-22F); assay type: cell-based, human; settings: 5 µM forskolin, 2.5 and 25 µg/mL, pGloSensor luminescence, n = 4
Description: as §1, §2

calmodulin = settings: cited from earlier work
Text: These two systems are rarely independent but are often antagonistic, sometimes synergistic, or occasionally redundant. Ca^2+ is never elevated without a possible consequence—either positive or negative— ...

[3] = system: IL-1β-activated rat knee joint cells; settings: by inhibiting I-κB degradation and NF-κB migration into the nucleus; cited from earlier work
Text: (§3) LPS induces iNOS expression and the release of NO in RAW264.7 macrophages. […] Previously, Tang et al. reported that Melt prev ...

[4] = system: LPS-activated BV2 microglia; settings: by blocking NF-κB translocation; cited from earlier work
Text: as §3

[5] = cited from earlier work
Text: Therefore, the identification of biologically active derivatives of melittins with minimal toxicity to healthy cells is important for developing new pharmacological treatment options. In this study, we applied a broad in vitro screening approach of melittin variants from the honeybee and earlier solitary bee lineages to assess whether these ...

[6] = system: TNF-activated EC monolayer; test: Adhesion of THP-1 leukocytes onto TNF-activated endothelial cells; assay type: cell-based, human; settings: peptide 30 min, TNF 10 ng/mL 24 h, THP-1 adhesion 5 min, static, fluorescence, n = 2
Description: Figure 4 Influence of melittin derivates on inflammation-associated cell functions. (A,B) For the NO induction assay (A), RAW264.7 cells were treated with melittin peptides in the indicated concentrations for 24 h. For the NO inhibition assay (B), RAW264.7 cells were pretreated with melittin peptides in the indicated concentrations for 30 min and then stimulated with 100 ng/mL LPS for 24 h. NO was detected in the supernatant using the Griess method. […] THP-1 cell adhesion under static conditions. HUVECs were grown to confluence, preincubated with bee venoms for 30 min, and activated with TNF (10 ng/mL) for 24 h. For the leukocyte adhesion assay, untreated THP-1 cells were stained with CellTracker Green and were allowed to adhere to the treated HUVECs for 5 min. The adhesion of leukocytes onto Ecs was quantified by fluorescence measurements for all cell adhesion experiments. Data are expressed as means ± SEM, (A,B) n = 3, (C) n = 2. * p ≤ 0.05 vs. TNF (positive) control.
For the investigation of leukocyte adhesion under static conditions, HMEC-1 cells were seeded into 96-well plates and cultured until they became confluent. […] Then, the fluorescence signal from adherent THP-1 cells was measured by a Tecan Infinite F200 Pro microplate reader (Tecan, Männedorf, Switzerland) (excitation: 485 nm, emission: 535 nm).

| Substance | reduction of cell viability (RAW264.7 cells) | prevention of cAMP synthesis, unstimulated cells (HEK293T cells [1]) | prevention of cAMP synthesis, forskolin-stimulated cells (HEK293T cells [2]) | inhibition of calmodulin function (calmodulin) | NF-κB activation [3] | iNOS expression and NO synthesis [4] | degradation in the blood [5] | adhesion of THP-1 leukocytes onto endothelial cells [6] |
| --- | --- | --- | --- | --- | --- | --- | --- | --- |
| melittin [Melt, reference compound] | more than 90% | almost completely prevented cAMP synthesis | almost completely prevented cAMP synthesis | competitive inhibitor of the calmodulin function | prevents NF-κB activation | reduced LPS-activated BV2 microglia iNOS expression and NO synthesis | fast degradation in the blood | – |
| xylopin [Xac4] | – | – | – | – | – | – | – | reducing the inflammation-associated interaction of endothelial cells with leukocytes |
